According to article PMC5481817, “Developing Targeted Hybrid Imaging Probes by Chelator Scaffolding” (Bioconjugate chemistry, 2017):
Values belong to the molecule of their own block, whether it stands above or below them. *1 amine or outer side, *2 acyl side, *3 side chain or, on linkers, in order; H or OH if unused. Where a SMILES comes first, the peptide text is derived from it. Bridges are numbered along the chain shown (N, C = ends). Roman numbers before positions name the chains, in order. [ ]: non-standard residue; d: D form. X2 = CC1=CC(=O)N(O)CCCC(NC(=O)CCN2C(=O)CC([*:2])C2=O)C(=O)OCCC(C)=CC(=O)N(O)CCCC(NC(=O)CCN2C(=O)CC([*:1])C2=O)C(=O)OCCC(C)=CC(=O)N(O)CCCC(NC(=O)CCCCC[N+]2=C(C=CC3=CC(=CC=C4N(C)c5ccc(S(=O)(=O)O)cc5C4(C)C)CCC3)C(C)(C)c3cc(S(=O)(=O)[O-])ccc32)C(=O)OCC1; Mpa = O=C(O)CCS

Legend:
human CCK-2 receptor = target: T1, human CCK-2 receptor (Homo sapiens, UniProt P32239); test: Whole cell receptor binding affinity (displacement of [125I]-[Leu15]-Gastrin I) on A431-CCK2R cells
T1 construct: expressed in transfected cells; host or cells: A431 human squamous carcinoma cells (gift from L. Aloj)
T1 sequence (P32239 1-447): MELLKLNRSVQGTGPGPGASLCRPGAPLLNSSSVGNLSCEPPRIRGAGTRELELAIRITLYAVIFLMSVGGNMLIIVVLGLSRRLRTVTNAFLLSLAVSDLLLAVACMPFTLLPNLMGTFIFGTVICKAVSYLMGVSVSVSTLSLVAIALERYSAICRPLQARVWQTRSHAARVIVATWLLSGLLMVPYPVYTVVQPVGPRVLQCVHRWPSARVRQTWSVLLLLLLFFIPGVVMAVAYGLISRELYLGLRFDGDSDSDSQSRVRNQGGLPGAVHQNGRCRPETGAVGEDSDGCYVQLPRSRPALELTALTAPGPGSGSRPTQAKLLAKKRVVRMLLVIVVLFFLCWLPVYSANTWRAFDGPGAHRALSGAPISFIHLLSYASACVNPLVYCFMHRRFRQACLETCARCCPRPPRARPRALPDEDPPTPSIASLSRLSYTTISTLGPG
Description: (§1) Receptor binding affinities were evaluated via a displacement cell-binding assay for metal free as well as metal bound ([^natGa]) conjugates. Binding of nonradioactive gallium was performed in analogy to the radiolabeling procedure but instead of the generator eluate a 100-fold molar excess of gallium bromide (GaBr3) dissolved in 100 μL 0.1 N HCl was used. Cells were prepared as described below and incubated with increasing concentrations [0.001–1000 nM] of competitor in triplicate. After addition of corresponding iodinated radioligand the 96-well MulitScreen Filter Plates HTS (1 μm glass fiber filter, Merck Millipore, Darmstadt, Germany) were incubated for 1 or 2 h at RT under shaking conditions (Compact shaker KS-15 control, 200/min) and after a washing step the remaining activity on the filter was measured in the γ-counter. The receptor affinity of DOTA-minigastrin11 as well as c(RGDyV) were determined under the corresponding conditions as a reference. IC50 values were calculated by using nonlinear curve fitting with following formula NS+SB/(1+x/IC50) on Origin 6.1 software (Northampton, MA, USA). A detailed description regarding iodination can be found in the Supporting Information.
A431-CCK2R cells were diluted in 50 mM HEPES buffer (pH 7.3) containing 5 mM MgCl2 and 0.3% BSA to a density of 5 × 10^6 cells/mL. 96-well plates were washed with 200 μL of 10 mM TRIS buffered saline (pH 7.3) and 100 μL of cell suspension were added to each well. Hereafter 50 μL of competitor solution {([^natGa])Sulfo-Cy7-FSC-MG or DOTA-minigastrin^11 diluted in 20 mM HEPES; 10 mM MgCl2 and 0.1% BSA} of each concentration were added and left for 10 min at RT. After incubation with 50 μL of radioligand (human [^125I]-[Leu^15]-Gastrin I 4.5 × 10^4 cpm) for 1 h the plate was washed twice with 200 μL TRIS-buffer/well.

A431-CCK2R cells = test: Fluorescence measured cell specificity, A431-CCK2R; format: cell-based, human; conditions: 2 h incubation, 3 nM ligand
Description: Fluorescence assays were conducted similarly to the internalization assays except for using lower cell numbers and determining only the cellbound fraction. Briefly, A431-CCK2R, M21, and M21-L cells were diluted in corresponding media to a density of 2 × 10^6 cells/mL. Aliquots of 0.5 mL were transferred to Eppendorf tubes—six technical replicates for A431-CCK2R unblocked and blocked and M21/M21-L, respectively—and treated in the same manner as described above. The nonradiolabeled particular ligand was added to a final concentration of 3 nM and the tubes were kept in an incubator (Incubator hood TH15 and Compact shaker KS-15 control, Edmund Bühler GmbH, Hechingen, Germany) at 37 °C for 2 h under vigorously shaking (420/min). After centrifugation (2 min, 5000 rpm) washing steps were performed as mentioned before. […] Fluorescence intensity was measured with Tecan Infinite 200 PRO series multiplate reader (Tecan Trading AG, Switzerland) by using Tecan Icontrol 1.1 software. Parameters were set as follows: Fluorescence Top reading; excitation/emission wavelength 740/790 nm; excitation bandwidth 9 nm; emission bandwidth 20 nm; gain optimal; number of flashes 25; integration time 25 μs. Results were calculated and expressed as percentage of cell-bound fluorescence in relation to the standards sample.

[1] = tested on: A431-CCK2R/A431-mock tumor xenograft-bearing BALB/c nude mice; test: Near-infrared fluorescence imaging, A431-CCK2R/A431-mock xenografts; format: in vivo, mouse
Description: All animal experiments were conducted in accordance with regulations and guidelines of the Czech Animal Protection Act (No. 246/1992), and with the approval of the Czech Ministry of Education, Youth, and Sports (MSMT-22421/2013–12), and the institutional Animal Welfare Committee of the Faculty of Medicine and Dentistry of Palacky University in Olomouc. The studies were performed using female 8–10-week-old athymic BALB/c nude mice (Envigo, Horst, The Netherlands). […]
Tumor xenografts were established near the front shoulder of mice by subcutaneous injection of 5 × 10^6 cells (U-87 MG) or 2 × 10^6 cells (A431-CCK2R) and the same amount of A431-mock cells as a control in 200 μL appropriate medium and Matrigel (1:1). […] Tumors, blood, muscle tissue, and organs were extracted, weighed, and activity uptake of the samples was measured in the gamma counter. Results were expressed as percentage of injected dose per gram tissue (% ID/g). […] After reconstruction, acquired data was viewed and analyzed with PMOD software (PMOD Technologies Ltd., Zurich, Switzerland). […] Near-infrared in vivo fluorescence imaging was performed with an In-Vivo MS FX PRO small animal imaging system (Bruker Biospin Corporation, Woodbridge, CT, USA). […] An appropriate filter set (excitation = 730 nm and emission = 790 nm) was used for acquiring the Sulfo-Cy7-FSC-peptide - fluorescence in vivo. […]

integrin αvβ3 = target: T2, integrin αvβ3 (Homo sapiens, UniProt P05106+P06756); test: Integrin binding affinity assay (displacement of [125I]-c(RGDyV)) on M21 cells
T2 construct: endogenous in cells; host or cells: human melanoma M21 cells (gift from D. A. Cheresh)
T2 sequence (P06756 31-889 limits assumed): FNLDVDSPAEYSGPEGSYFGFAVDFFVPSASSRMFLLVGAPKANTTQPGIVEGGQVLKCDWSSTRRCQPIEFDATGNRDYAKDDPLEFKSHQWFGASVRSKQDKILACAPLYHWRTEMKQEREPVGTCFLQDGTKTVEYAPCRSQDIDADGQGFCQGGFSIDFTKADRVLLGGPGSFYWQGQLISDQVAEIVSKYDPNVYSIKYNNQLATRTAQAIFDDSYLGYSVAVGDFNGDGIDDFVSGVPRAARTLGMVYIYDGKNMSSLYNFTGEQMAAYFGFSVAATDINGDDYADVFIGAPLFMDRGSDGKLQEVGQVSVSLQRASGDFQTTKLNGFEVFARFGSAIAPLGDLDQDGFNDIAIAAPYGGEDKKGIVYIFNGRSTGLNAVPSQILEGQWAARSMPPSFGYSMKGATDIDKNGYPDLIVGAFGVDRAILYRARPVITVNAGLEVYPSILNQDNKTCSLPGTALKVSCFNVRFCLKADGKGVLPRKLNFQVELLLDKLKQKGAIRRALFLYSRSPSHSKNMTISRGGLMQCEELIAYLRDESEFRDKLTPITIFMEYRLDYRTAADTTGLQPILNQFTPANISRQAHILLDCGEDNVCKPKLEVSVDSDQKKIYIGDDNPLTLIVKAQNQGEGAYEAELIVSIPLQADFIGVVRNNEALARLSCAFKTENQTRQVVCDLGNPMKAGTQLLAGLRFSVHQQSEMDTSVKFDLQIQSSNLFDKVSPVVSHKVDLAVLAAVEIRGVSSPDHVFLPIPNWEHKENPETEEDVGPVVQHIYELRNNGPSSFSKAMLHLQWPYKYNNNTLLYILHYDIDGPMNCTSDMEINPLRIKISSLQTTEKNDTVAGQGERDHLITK
T2 sequence (P06756 891-1048 partner limits assumed): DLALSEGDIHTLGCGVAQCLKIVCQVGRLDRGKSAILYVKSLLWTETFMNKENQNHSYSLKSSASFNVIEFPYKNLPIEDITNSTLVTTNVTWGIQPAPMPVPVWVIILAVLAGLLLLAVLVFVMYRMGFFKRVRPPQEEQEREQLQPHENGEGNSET
T2 sequence (P05106 27-788): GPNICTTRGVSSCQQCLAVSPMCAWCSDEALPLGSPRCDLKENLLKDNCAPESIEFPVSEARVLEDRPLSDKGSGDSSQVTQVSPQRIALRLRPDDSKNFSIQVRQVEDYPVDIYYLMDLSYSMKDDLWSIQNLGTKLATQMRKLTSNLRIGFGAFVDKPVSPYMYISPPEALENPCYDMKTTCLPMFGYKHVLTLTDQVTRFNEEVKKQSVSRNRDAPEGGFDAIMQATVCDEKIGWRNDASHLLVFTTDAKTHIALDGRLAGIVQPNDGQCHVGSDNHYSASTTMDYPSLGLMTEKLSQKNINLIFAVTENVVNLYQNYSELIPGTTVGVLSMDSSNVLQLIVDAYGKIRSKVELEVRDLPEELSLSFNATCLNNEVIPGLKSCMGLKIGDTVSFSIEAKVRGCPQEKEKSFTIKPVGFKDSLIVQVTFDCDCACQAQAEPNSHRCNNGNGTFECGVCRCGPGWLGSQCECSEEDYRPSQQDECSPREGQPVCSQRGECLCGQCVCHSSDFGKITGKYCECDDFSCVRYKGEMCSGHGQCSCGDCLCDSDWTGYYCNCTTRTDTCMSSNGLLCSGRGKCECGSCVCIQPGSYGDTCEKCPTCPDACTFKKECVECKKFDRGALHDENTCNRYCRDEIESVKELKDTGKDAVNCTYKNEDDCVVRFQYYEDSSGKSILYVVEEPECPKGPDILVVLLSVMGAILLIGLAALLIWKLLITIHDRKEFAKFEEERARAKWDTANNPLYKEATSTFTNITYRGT
Description: as §1
Integrin binding affinity assay was adapted from Yun Wu et al.[31] Briefly, M21 cells were washed two times with phosphate buffered saline followed by suspension in binding buffer (=20 mM TRIS pH 7.4 + 150 mM NaCl + 2 mM CaCl2 + 1 mM MgCl2 + 1 mM MnCl2 0.1% BSA). 96-well plates were washed with 200 μL of 20 mM TRIS-buffer and seeded with 1 × 10^6 cells/well (10^7 cells/mL). After 10 min of incubation in the presence of the competitor {([^natGa])Sulfo-Cy7-FSC-RGD or c(RGDyV) diluted in binding buffer)} volume was adjusted to 200 μL/well by adding 50 μL of radioligand ([^125I]-c(RGDyV), 4.5 × 10^4 cpm) and the plate was left for 2 h at RT. Finally the supernatant was removed by vacuum and each well was washed three times with 200 μL ice-cold binding buffer.

[2] = metal-bound ([natGa]) complexed form

- IC50 (human CCK-2 receptor; [2]): 2.68 ± 0.53 nM
- IC50 (human CCK-2 receptor; metal-free (uncomplexed) conjugate or reference peptide, radioligand [125I]-[Leu15]-Gastrin I, 1 h RT): 2.81 ± 0.66 nM
SMILES: CSCC[C@H](NC(=O)[C@H](Cc1c[nH]c2ccccc12)NC(=O)CNC(=O)[C@H](Cc1ccc(O)cc1)NC(=O)[C@H](C)NC(=O)[C@@H](CCC(=O)O)NC(=O)CCSC1CC(=O)N(CCC(=O)NC2CCCN(O)C(=O)C=C(C)CCOC(=O)C(NC(=O)CCN3C(=O)CC(SCCC(=O)N[C@H](CCC(=O)O)C(=O)N[C@@H](C)C(=O)N[C@@H](Cc4ccc(O)cc4)C(=O)NCC(=O)N[C@@H](Cc4c[nH]c5ccccc45)C(=O)N[C@@H](CCSC)C(=O)N[C@@H](CC(=O)O)C(=O)N[C@@H](Cc4ccccc4)C(N)=O)C3=O)CCCN(O)C(=O)C=C(C)CCOC(=O)C(NC(=O)CCCCC[N+]3=C(C=CC4=CC(=CC=C5N(C)c6ccc(S(=O)(=O)O)cc6C5(C)C)CCC4)C(C)(C)c4cc(S(=O)(=O)[O-])ccc43)CCCN(O)C(=O)C=C(C)CCOC2=O)C1=O)C(=O)N[C@@H](CC(=O)O)C(=O)N[C@@H](Cc1ccccc1)C(N)=O (stereo partly drawn) [Sulfo-Cy7-FSC-MG, Sulfo-Cyanine7-FSC-(mal-MG11)2] (I: [Mpa][dE]AYGWMDF-NH2 / II: [Mpa][dE]AYGWMDF-NH2; linker I:1-II:1 via X2)
- Fluorescence-determined cell uptake (A431-CCK2R cells; blocked A431-CCK2R cells): 1.65 ± 0.47%
- Fluorescence-determined cell uptake (A431-CCK2R cells; nonblocked A431-CCK2R cells): 10.78 ± 1.04%
- optical imaging tumor contrast ([1]; 2 h after injection): moderate contrast
- optical imaging tumor contrast ([1]; 5 h up to 3 days p.i.): excellent contrast

- IC50 (integrin αvβ3; metal-free conjugate or reference peptide, radioligand [125I]-c(RGDyV), 2 h RT): 15.2 ± 2.86 nM
SMILES: CC(C)[C@@H]1NC(=O)[C@@H](Cc2ccc(O)cc2)NC(=O)[C@H](CC(=O)O)NC(=O)CNC(=O)[C@H](CCCNC(=N)N)NC1=O [c(RGDyV), reference compound]

- IC50 (integrin αvβ3; [natGa] bound form): 0.81 ± 0.19 nM
SMILES: CC1=CC(=O)N(O)CCCC(NC(=O)CCN2C(=O)CC(SCCOCCOCCOCCOCCC(=O)NCCCC[C@@H]3NC(=O)[C@@H](Cc4ccccc4)NC(=O)[C@H](CC(=O)O)NC(=O)CNC(=O)[C@H](CCCNC(=N)N)NC3=O)C2=O)C(=O)OCCC(C)=CC(=O)N(O)CCCC(NC(=O)CCN2C(=O)CC(SCCOCCOCCOCCOCCC(=O)NCCCC[C@@H]3NC(=O)[C@@H](Cc4ccccc4)NC(=O)[C@H](CC(=O)O)NC(=O)CNC(=O)[C@H](CCCNC(=N)N)NC3=O)C2=O)C(=O)OCCC(C)=CC(=O)N(O)CCCC(NC(=O)CCCCC[N+]2=C(C=CC3=CC(=CC=C4N(C)c5ccc(S(=O)(=O)O)cc5C4(C)C)CCC3)C(C)(C)c3cc(S(=O)(=O)[O-])ccc32)C(=O)OCC1 (stereo partly drawn) [[^natGa]Sulfo-Cy7-FSC-RGD, metal not drawn]

- IC50 (human CCK-2 receptor; [2]): 2.68 ± 0.53 nM
SMILES: CSCC[C@H](NC(=O)[C@H](Cc1c[nH]c2ccccc12)NC(=O)CNC(=O)[C@H](Cc1ccc(O)cc1)NC(=O)[C@H](C)NC(=O)[C@@H](CCC(=O)O)NC(=O)CCSC1CC(=O)N(CCC(=O)NC2CCCN(O)C(=O)C=C(C)CCOC(=O)C(NC(=O)CCN3C(=O)CC(SCCC(=O)N[C@H](CCC(=O)O)C(=O)N[C@@H](C)C(=O)N[C@@H](Cc4ccc(O)cc4)C(=O)NCC(=O)N[C@@H](Cc4c[nH]c5ccccc45)C(=O)N[C@@H](CCSC)C(=O)N[C@@H](CC(=O)O)C(=O)N[C@@H](Cc4ccccc4)C(N)=O)C3=O)CCCN(O)C(=O)C=C(C)CCOC(=O)C(NC(=O)CCCCC[N+]3=C(C=CC4=CC(=CC=C5N(C)c6ccc(S(=O)(=O)O)cc6C5(C)C)CCC4)C(C)(C)c4cc(S(=O)(=O)[O-])ccc43)CCCN(O)C(=O)C=C(C)CCOC2=O)C1=O)C(=O)N[C@@H](CC(=O)O)C(=O)N[C@@H](Cc1ccccc1)C(N)=O (stereo partly drawn) [[^natGa]Sulfo-Cy7-FSC-MG, metal not drawn] (I: [Mpa][dE]AYGWMDF-NH2 / II: [Mpa][dE]AYGWMDF-NH2; linker I:1-II:1 via X2)
